Data: patent US12606556B2, “TYK-2 inhibitor” (BEIGENE, LTD., priority 2020, dated 2026)

Assays:
[1] = test system: JAK1/p-STAT3(Tyr705) activated by IL-6 in TF-1 cell line; assay: IL-6-JAK1/p-STAT3(Tyr705) inhibition cellular assay; type: cell-based; details: Homo sapiens, 0.5 h; TF-1 cells, IL-6 50 ng/ml, 30 min; read-out: Cellular assay pSTAT3/IL-6 IC50
[2] = target: T1, JAK1-JH2 protein (aa 561-860, in-house) (Homo sapiens, UniProt P23458); assay: JAK1-JH2 biochemical assay (HTRF, blocking of JAK1-JH2 protein with its probe); type: binding; details: 1.17 nM recombinant JAK1-JH2, Probe 2
T1 construct: JAK1-JH2 protein (aa 561-860, in-house); made in house
T1 sequence (P23458 561-860): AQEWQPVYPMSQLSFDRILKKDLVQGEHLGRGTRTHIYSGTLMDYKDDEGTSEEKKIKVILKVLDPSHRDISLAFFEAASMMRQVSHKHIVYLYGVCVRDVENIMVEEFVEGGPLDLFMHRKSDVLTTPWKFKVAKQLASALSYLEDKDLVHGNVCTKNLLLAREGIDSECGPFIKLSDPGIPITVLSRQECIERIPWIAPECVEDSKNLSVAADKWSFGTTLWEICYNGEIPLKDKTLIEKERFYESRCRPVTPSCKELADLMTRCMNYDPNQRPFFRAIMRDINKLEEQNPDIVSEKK
Summary of the method: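 HTRF probe-displacement assay using recombinant human JAK1 pseudokinase domain (aa 561-860, 1.17 nM in pre-incubation step), pre-incubated 0.5 h at room temperature with 10-dose 5-fold compound series. Buffer: 20 mM HEPES pH 7.5, 10 mM MgCl2, 0.005% BSA, 2 mM DTT, 0.015% Brij-35. IC50 by four-parameter logistic fit of 615/665 nm ratio.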

[3] = test system: JAK2, TYK2/p-STAT4 (Tyr693) activated by IL-12 in NK-92 cell line; assay: IL-12-JAK2, TYK2/p-STAT4 (Tyr693) inhibition cellular assay; type: cell-based; details: for IC50: NK92, 0.5 h, NK-92 cells, IL-12 40 ng/ml, 30 min, read-out: Cellular assay pSTAT4/IL-12 IC50; for Cellular assay Selectivity fold (TYK2/JAK1): pSTAT4/IL-12 vs pSTAT3/IL-6 cellular IC50
Summary of the method: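 NK-92 cells were starved overnight without IL-2 and seeded at 5×10^4 per well in 1640 medium with 0.1% BSA. Lysate p-STAT4 (Tyr693) was measured by AlphaLISA SureFire, and IC50 was fitted with a 4-parameter logistic model.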

[4] = target: T2, TYK2-JH2 (aa 575-869, in-house) protein (Homo sapiens, UniProt P29597); assay: TYK2-JH2 biochemical assay (HTRF, blocking of TYK2-JH2 protein with its probe); type: binding; details: for IC50: HTRF, 0.2 nM recombinant TYK2-JH2, Probe 1; for Biochemical assay Selectivity fold (TYK2/JAK1): TYK2-JH2 vs JAK1-JH2 biochemical IC50
T2 construct: TYK2-JH2 (aa 575-869, in-house) protein; made in house
T2 sequence (P29597 575-869): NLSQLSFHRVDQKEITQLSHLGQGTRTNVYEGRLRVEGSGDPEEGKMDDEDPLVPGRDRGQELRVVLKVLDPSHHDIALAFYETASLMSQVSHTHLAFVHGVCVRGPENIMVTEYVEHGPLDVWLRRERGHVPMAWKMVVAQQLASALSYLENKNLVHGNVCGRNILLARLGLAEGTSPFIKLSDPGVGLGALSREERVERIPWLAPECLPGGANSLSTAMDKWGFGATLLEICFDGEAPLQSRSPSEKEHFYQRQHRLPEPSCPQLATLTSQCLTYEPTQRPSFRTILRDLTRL
Summary of the method: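 Recombinant TYK2-JH2 (0.2 nM) pre-incubated with compounds (10 doses, 5-fold dilutions) 0.5 h at RT in HEPES pH 7.5 buffer with MgCl2, BSA, DTT, Brij-35; biotinylated probe (10 nM working solution, KD=10 nM) plus anti-6His Tb cryptate/streptavidin-XL665 added, 1 h RT. HTRF ratio read; IC50 from four-parameter logistic fit.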

Row | IC50 [1] [nM] | IC50 [2] [nM] | IC50 [3] [nM] | IC50 [4] [nM] | Biochemical assay Selectivity fold (TYK2/JAK1) [4] [fold] | Structure (SMILES) | Cellular assay Selectivity fold (TYK2/JAK1) [3] [fold]
1 | > 10000 | 1.2 | 34.2 | 0.057 | 21 | CNC(=O)c1nnc(NC(=O)C2CC2)cc1Nc1nc2ccc(N3CC(O)C3)cn2n1 [Example H1, 6-(cyclopropanecarboxamido)-4-((6-(3-hydroxyazetidin-1-yl)-[1,2,4]triazolo[1,5-a]pyridin-2-yl)amino)-N-methylpyridazine-3-carboxamide] | >292
2 | > 10000 | 1.8 | 15.6 | 0.086 | 21 | CNC(=O)c1nnc(NC(=O)C2CC2)cc1Nc1nc2ccc(N3CC(F)(CO)C3)cn2n1 [Example J1, 6-(cyclopropanecarboxamido)-4-((6-(3-fluoro-3-(hydroxymethyl)azetidin-1-yl)-[1,2,4]triazolo[1,5-a]pyridin-2-yl)amino)-N-methylpyridazine-3-carboxamide] | >641
3 | 4360 | 1.3 | 14.9 | 0.053 | 25 | CNC(=O)c1nnc(NC(=O)C2CC2)cc1Nc1nc2ccc(N3CCC3CO)cn2n1 (stereo not drawn) [Example J2, 6-(cyclopro-panecar-boxamido)-4-((6-(2-(hydroxy-methyl)azetidin-1-yl)-[1,2,4]triazolo[1,5-a]pyridin-2-yl)amino)-N-methyl-pyridazine-3-carboxamide] | 292
4 | > 10000 | 3.8 | 219 | 0.5 | 8 | CNC(=O)c1nnc(NC(=O)C2CC2)cc1Nc1nc2ccc(N3C(=O)CC3c3ccccc3)cn2n1 (stereo not drawn) [Example K1, 6-(cyclopropanecarboxamido)-N-methyl-4-((6-(2-oxo-4-phenylazetidin-1-yl)-[1,2,4]triazolo[1,5-a]pyridin-2-yl)amino)pyridazine-3-carboxamide] | >46

Further lines, the compound ahead of its results:

Row | Structure (SMILES) | IC50 [1] [nM] | IC50 [2] [nM] | IC50 [3] [nM] | IC50 [4] [nM] | Biochemical assay Selectivity fold (TYK2/JAK1) [4] [fold] | Cellular assay Selectivity fold (TYK2/JAK1) [3] [fold]
5 | CNC(=O)c1nnc(NC(=O)C2CC2)cc1Nc1nc2ccc(N3CC(COC)C3)cn2n1 [Example E15, 6-(cyclopropanecar-boxamido)-4-((6-(3-(methoxymethyl)azetidin-1-yl)-[1,2,4]triazolo[1,5-a]pyridin-2-yl)amino)-N-methylpyridazine-3-carboxamide] | > 10000 | 1.3 | 8.14 | 0.045 | 29 | >1228
6 | CNC(=O)c1nnc(NC(=O)C2CC2)cc1Nc1nc2ccc(N3CC(OCCOC)C3)cn2n1 [Example E16, 6-(cyclopropanecar-boxamido)-4-((6-(3-(2-methoxyethoxy)azetidin-1-yl)-[1,2,4]triazolo[1,5-a]pyridin-2-yl)amino)-N-methylpyridazine-3-carboxamide] | 2910 | 0.93 | 15.6 | 0.046 | 20 | 186
7 | CNC(=O)c1nnc(NC(=O)C2CC2)cc1Nc1nc2ccc(N3CC(F)(COC)C3)cn2n1 [Example E17, 6-(cyclopropanecar-boxamido)-4-((6-(3-fluoro-3-(methoxy-methyl)azetidin-1-yl)-[1,2,4]triazolo[1,5-a]pyridin-2-yl)amino)-N-methylpyridazine-3-carboxamide] | 2630 | 2.5 | 8.28 | 0.071 | 35 | 317
8 | CNC(=O)c1nnc(NC(=O)C2CC2)cc1Nc1nc2ccc(N3CC(S(C)(=O)=O)C3)cn2n1 [Example E18, 6-(cyclopropanecar-boxamido)-N-methyl-4-((6-(3-(methyl-sulfonyl)azetidin-1-yl)-[1,2,4]triazolo [1,5-a]pyridin-2-yl)amino)pyridazine-3-carboxamide] | > 10000 | 1.5 | 645 | 0.12 | 13 | >15.5
9 | CNC(=O)c1nnc(NC(=O)C2CC2)cc1Nc1nc2ccc(N3CC(Oc4ccc(F)cc4F)C3)cn2n1 [Example E19, 6-(cyclopropanecar-boxamido)-4-((6-(3-(2,4-difluorophenoxy)azetidin-1-yl)-[1,2,4]triazolo[1,5-a]pyridin-2-yl)amino)-N-methylpyridazine-3-carboxamide] | > 10000 | 8.4 | 105 | 0.14 | 60 | >95
10 | CNC(=O)c1nnc(NC(=O)C2CC2)cc1Nc1nc2ccc(N3CCC3COC)cn2n1 (stereo not drawn) [Example E20, 6-(cyclopropanecar-boxamido)-4-((6-(2-(methoxymethyl)azetidin-1-yl)-[1,2,4]triazolo[1,5-a]pyridin-2-yl)amino)-N-methylpyridazine-3-carboxamide] | > 10000 | 3.2 | 16.4 | 0.089 | 36 | >609
11 | CNC(=O)c1nnc(NC(=O)C2CC2)cc1Nc1nc2ccc(N3CCC(N4CC(N(C)C)C4)CC3)cn2n1 [Example E21, 6-(cyclopropanecar-boxamido)-4-((6-(4-(3-(dimethylamino)azetidin-1-yl)piperidin-1-yl)-[1,2,4]triazolo [1,5-a]pyridin-2-yl)amino)-N-methylpyridazine-3-carboxamide] | > 10000 | 2.78 | 42 | 0.077 | 36 | >238
12 | CCN(CC)C1CN(c2ccc3nc(Nc4cc(NC(=O)C5CC5)nnc4C(=O)NC)nn3c2)C1 [Example E22, 6-(cyclopropanecar-boxamido)-4-((6-(3-(diethylamino)azetidin-1-yl)-[1,2,4]triazolo [1,5-a]pyridin-2-yl)amino)-N-methylpyridazine-3-carboxamide] | 5120 | 1.03 | 37.2 | 0.093 | 11 | 138
13 | CNC(=O)c1nnc(NC(=O)C2CC2)cc1Nc1nc2ccc(N3CC(N(C)S(C)(=O)=O)C3)cn2n1 [Example F1, 6-(cyclopropanecarboxamido)-N-methyl-4-((6-(3-(N-methylmethylsulfonamido)azetidin-1-yl)-[1,2,4]triazolo[1,5-a]pyridin-2-yl)amino)pyridazine-3-carboxamide] | > 10000 | 2.6 | 95 | 0.12 | 22 | >105
14 | CNC(=O)c1nnc(NC(=O)C2CC2)cc1Nc1nc2ccc(N3CC(C(C)O)C3)cn2n1 (stereo not drawn) [Example G1, 6-(cyclopropanecarboxamido)-4-((6-(3-(1-hydroxyethyl)azetidin-1-yl)-[1,2,4]triazolo[1,5-a]pyridin-2-yl)amino)-N-methylpyridazine-3-carboxamide] | > 10000 | 1.8 | 9.05 | 0.076 | 24 | >1104
